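Assay format: 96-well plates, 48-hour exposure. At the TGI there is no net growth.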
These compounds were tested on RXF 393 renal (assay: growth of human tumour cells (NCI), 48 h).

`COc1ccc2cc(Oc3ccc(Cl)cc3)c(=O)oc2c1` and `O=c1c(C=Nc2ccccc2Cl)c(O)n(-c2ccccc2)c(=O)n1-c1ccccc1` cannot be ordered by TGI: > 100 µM for the first, > 100 µM for the second.

`CN(C)C=C1C(=O)c2c(Br)sc(Br)c2C1=O` and `CCC(Sc1cc(Cl)c(C)cc1S(=O)(=O)Nc1nc(N)nc(N(C)C)n1)C(=O)O` (configuration not stated) cannot be ordered by TGI: 42.4 µM for the first, > 10 µM for the second.

Going from `CCN(CC)C(=C(C(Cl)=C(Cl)Cl)[N+](=O)[O-])N(CC)CC` to `C=C1C(=O)OC2/C=C(\CO)C3OC3C3OC3(C)CC(OC(=O)/C(=C/C)CO)C12` (configuration not stated), the TGI rises from 67 µM to > 100 µM.

`CCOC(=O)C(C(=O)OCC)=C1NC2(c3ccccc3Nc3ccc(C)cc32)C(C#N)S1` (configuration not stated) and `CC(C)(C)[Si](C)(C)O[C@@H](C(=O)OC1C=CCCC1)[C@@H](NC(=O)c1ccccc1)c1ccccc1` (some centres not stated) are within 1.5-fold of each other in TGI: 27.8 µM for the first, 34.3 µM for the second.

Going from `COC(=O)Nc1nc2ccc(S(=O)(=O)NC(CC(C)C)C(=O)OC)cc2[nH]1` (configuration not stated) to `CC(=O)O[C@@H]1CC[C@@]2(C)C(CC[C@H]3[C@@H]4CC[C@H]([C@H](C)CCc5nc6ccc(C)cc6[nH]5)[C@@]4(C)CC[C@@H]32)C1` (some centres not stated), the TGI rises from 15.9 µM to > 100 µM.

`OC(CCN1CCCCC1)(c1ccccc1)c1ccccc1` and `O=C1CC(=O)NC(=NN2C(=O)/C(=C/C(=O)c3ccco3)N=C2c2ccccc2)N1` cannot be ordered by TGI: > 100 µM for the first, > 100 µM for the second.

Compared with `CN(C)c1ccc(/C=N\NC(=O)c2ccccc2Nc2ccccc2C(=O)N/N=C/c2ccc(N(C)C)cc2)cc1`, `CNc1c2cccc(C)c2nc2c(C(=O)NCCN(C)C)cccc12` is lower in TGI: > 100 µM for the first, 0.413 µM for the second.

`Cc1csc2nc3c(cnn3C)c(=S)n12` and `Cc1ccc(-n2cnc3c(N)nc(N)nc32)cc1` cannot be ordered by TGI: > 100 µM for the first, > 100 µM for the second.

Compared with `C/C1=C/C(C)CC(C)OC(=O)C(C)NC(=O)C(Cc2ccc(O)c(I)c2)N(C)C(=O)CNC(=O)C(C)C1` (configuration not stated), `CC(C)(C)O/C=C1/C(=O)OC2C[C@@H](O[Si](C)(C)C(C)(C)C)CC12` (some centres not stated) is higher in TGI: < 0.01 µM for the first, 73.3 µM for the second.

Each compound was assayed on SK-MEL-5 melanoma (assay: growth of human tumour cells (NCI), 48 h).

`Cc1oc2c(c1C)S(=O)(=O)C(C#N)C(c1ccccc1)N2` (configuration not stated) and `Cc1oc2c(c1C)S(=O)(=O)C(C#N)=C(c1ccccc1)N2` cannot be ordered by TGI: > 100 µM for the first, > 100 µM for the second.

`CC(=O)Oc1cc2c(n(C)c1=O)-c1ccccc1C2` and `CCOC(=O)NNC(=O)C1CSC(c2ccccc2)N1C(C)=O` (configuration not stated) cannot be ordered by TGI: > 100 µM for the first, > 100 µM for the second.

`COc1ccc2cc(Oc3ccc(Cl)cc3)c(=O)oc2c1` and `Cc1ccc2c(c1)C(=O)/C(=N/Nc1ccc(Cl)cc1)CCO2` cannot be ordered by TGI: > 100 µM for the first, > 100 µM for the second.

`CN(C)C=C1C(=O)c2c(Br)sc(Br)c2C1=O` and `CCC(Sc1cc(Cl)c(C)cc1S(=O)(=O)Nc1nc(N)nc(N(C)C)n1)C(=O)O` (configuration not stated) cannot be ordered by TGI: 30.6 µM for the first, > 10 µM for the second.

First: CCN(CC)C(=C(C(Cl)=C(Cl)Cl)[N+](=O)[O-])N(CC)CC
Second: COc1ccc2nc3c([N+](=O)[O-])ccc4c3c(c2c1)N=CN4CCCN(C)C
The TGI of the first is higher: > 100 µM for the first, 12.1 µM for the second.

Compared with `CCOC(=O)C(C(=O)OCC)=C1NC2(c3ccccc3Nc3ccc(C)cc32)C(C#N)S1` (configuration not stated), `CC(C)(C)[Si](C)(C)O[C@@H](C(=O)OC1C=CCCC1)[C@@H](NC(=O)c1ccccc1)c1ccccc1` (some centres not stated) is 1.9-fold higher in TGI: 20 µM for the first, 37.2 µM for the second.

Going from `COC(=O)Nc1nc2ccc(S(=O)(=O)NC(CC(C)C)C(=O)OC)cc2[nH]1` (configuration not stated) to `CC(=O)O[C@@H]1CC[C@@]2(C)C(CC[C@H]3[C@@H]4CC[C@H]([C@H](C)CCc5nc6ccc(C)cc6[nH]5)[C@@]4(C)CC[C@@H]32)C1` (some centres not stated), the TGI rises from 4.21 µM to > 100 µM.

`OC(CCN1CCCCC1)(c1ccccc1)c1ccccc1` and `O=c1c(C=Nc2ccccc2Cl)c(O)n(-c2ccccc2)c(=O)n1-c1ccccc1` cannot be ordered by TGI: > 100 µM for the first, > 100 µM for the second.

Compared with `O=C(Nc1cccc2ccccc12)Nn1cnnc1`, `CNc1c2cccc(C)c2nc2c(C(=O)NCCN(C)C)cccc12` is lower in TGI: > 100 µM for the first, 0.593 µM for the second.

Going from `CN(C)c1ccc(/C=N\NC(=O)c2ccccc2Nc2ccccc2C(=O)N/N=C/c2ccc(N(C)C)cc2)cc1` to `C/C1=C/C(C)CC(C)OC(=O)C(C)NC(=O)C(Cc2ccc(O)c(I)c2)N(C)C(=O)CNC(=O)C(C)C1` (configuration not stated), the TGI falls from > 100 µM to 13.2 µM.

`C=C1C(=O)OC2/C=C(\CO)C3OC3C3OC3(C)CC(OC(=O)/C(=C/C)CO)C12` (configuration not stated) and `CC(C)(C)O/C=C1/C(=O)OC2C[C@@H](O[Si](C)(C)C(C)(C)C)CC12` (some centres not stated) cannot be ordered by TGI: > 100 µM for the first, > 100 µM for the second.

`Cc1csc2nc3c(cnn3C)c(=S)n12` and `Cc1ccc(-n2cnc3c(N)nc(N)nc32)cc1` cannot be ordered by TGI: > 100 µM for the first, > 100 µM for the second.

The compounds below were run on T-47D breast (assay: growth of human tumour cells (NCI), 48 h).

`Cc1oc2c(c1C)S(=O)(=O)C(C#N)C(c1ccccc1)N2` (configuration not stated) and `Cc1oc2c(c1C)S(=O)(=O)C(C#N)=C(c1ccccc1)N2` cannot be ordered by TGI: > 100 µM for the first, > 100 µM for the second.

`CC(=O)Oc1cc2c(n(C)c1=O)-c1ccccc1C2` and `COc1ccc2cc(Oc3ccc(Cl)cc3)c(=O)oc2c1` cannot be ordered by TGI: > 100 µM for the first, > 100 µM for the second.

`CN(C)C=C1C(=O)c2c(Br)sc(Br)c2C1=O` and `Cc1ccc2c(c1)C(=O)/C(=N/Nc1ccc(Cl)cc1)CCO2` cannot be ordered by TGI: > 100 µM for the first, > 100 µM for the second.

`CCN(CC)C(=C(C(Cl)=C(Cl)Cl)[N+](=O)[O-])N(CC)CC` and `C=C1C(=O)OC2/C=C(\CO)C3OC3C3OC3(C)CC(OC(=O)/C(=C/C)CO)C12` (configuration not stated) cannot be ordered by TGI: > 100 µM for the first, > 100 µM for the second.

First: CCOC(=O)C(C(=O)OCC)=C1NC2(c3ccccc3Nc3ccc(C)cc32)C(C#N)S1 (configuration not stated)
Second: CC(C)(C)[Si](C)(C)O[C@@H](C(=O)OC1C=CCCC1)[C@@H](NC(=O)c1ccccc1)c1ccccc1 (some centres not stated)
The TGI of the first is 2.8-fold lower: 34.6 µM for the first, 98 µM for the second.

Going from `COC(=O)Nc1nc2ccc(S(=O)(=O)NC(CC(C)C)C(=O)OC)cc2[nH]1` (configuration not stated) to `CC(=O)O[C@@H]1CC[C@@]2(C)C(CC[C@H]3[C@@H]4CC[C@H]([C@H](C)CCc5nc6ccc(C)cc6[nH]5)[C@@]4(C)CC[C@@H]32)C1` (some centres not stated), the TGI falls from > 100 µM to 4.63 µM.

`OC(CCN1CCCCC1)(c1ccccc1)c1ccccc1` and `O=C(Nc1cccc2ccccc12)Nn1cnnc1` cannot be ordered by TGI: > 100 µM for the first, > 100 µM for the second.

For `CN(C)c1ccc(/C=N\NC(=O)c2ccccc2Nc2ccccc2C(=O)N/N=C/c2ccc(N(C)C)cc2)cc1`, the TGI was > 100 µM.

Source: PubChem BioAssay (NCI)
